Assay results from patent publication US9635879B2, “Sweetener” (Tate & Lyle Ingredients Americas LLC, priority 2013, dated 2017).
Marks after values point to notes of the source that are not given here.

How the values were obtained:
[1] = Round table sensory evaluation with test panelists: sucrose equivalent value (SEV) against sucrose reference samples; type: in vivo; settings: for Sweetness (mean SEV), two-way ANOVA, grouping (Duncan): second Sweetness line, superscripts = Duncan grouping, level of significance 5%
Experimental: Round table evaluations were performed with test panelists. Equal sweet 10 SEV concentrations in neutral pH water were made for allulose, fructose and sucralose, as well as a composition comprising allulose, fructose and sucralose. The components of the test compositions are described in the below tables. The mixed compositions were calculated using the Beidler mixture equation for the sweeteners. The Beidler mixture equation for sweeteners is as follows: […]
The concentration of each component in the mixture in ppm is divided by SEV (c/R) and is plotted against concentration, c. The slope of the linear regression is the maximum SEV (Rmax). The y-intercept of the linear regression multiplied by Rmax is the half-maximal sweetness concentration, 1/K. Rmax and 1/K are the two parameters used in the Beidler equation.
The equal-molar mixture was tested against reference samples for the panelists to determine SEV values. […] The test samples were served in 2 ounce (approximately 60 ml) soufflé cups coded with 3-digit codes at room temperature. A two minute wait period between samples was enforced. Water and unsalted crackers was available for the panelists to clear their palates before and during testing. EyeQuestion was used for ballot development and recording of results. Results were collected in EyeQuestion for calculating approximate SEV level of each test sample. The test products analyzed in this experiment are described below in Table 1.

[2] = times as sweet as sucrose; cited from earlier work
[3] = neutral pH water, room temperature, samples made to equal sweet 10 SEV, references 4-14% sucrose

| SMILES | Mean sucrose equivalent value (SEV) (Mean 1) [1, 3] | Sweetness (mean SEV), two-way ANOVA, grouping (Duncan) [1] | Sweetness (mean SEV), two-way ANOVA, level of significance (Duncan) ([1]; first Sweetness line, superscripts = level of significance (Duncan)) | Median sucrose equivalent value (SEV) (Median 1) [1, 3] | Sweetness relative to sucrose [2] |
| --- | --- | --- | --- | --- | --- |
| O=C(CO)C(O)C(O)C(O)CO (stereo not drawn) [Allulose, allulose] | 10.14 | 10.14^b-c | – | – | – |
| O=C(CO)[C@@H](O)[C@H](O)[C@H](O)CO [Fructose, fructose] | 10.14 | 10.14^b-c | – | – | – |
| OC[C@H]1O[C@H](O[C@]2(CCl)O[C@H](CCl)[C@@H](O)[C@@H]2O)[C@H](O)[C@@H](O)[C@H]1Cl [Sucralose, sucralose] | 9.286 | 9.29^c | 9.29 | 10 | approximately 600 times |
